Data on nine compounds can be found in US9896441B2 (Lycera Corporation, priority 2014, dated 2018).

One assay concerns the target T1, RORγ-LBD (Homo sapiens, UniProt P51449).
T1 construct: made in house; host or cells: SF9 cells (baculovirus); used as diluted lysate
T1 sequence (P51449 269-508 limits assumed): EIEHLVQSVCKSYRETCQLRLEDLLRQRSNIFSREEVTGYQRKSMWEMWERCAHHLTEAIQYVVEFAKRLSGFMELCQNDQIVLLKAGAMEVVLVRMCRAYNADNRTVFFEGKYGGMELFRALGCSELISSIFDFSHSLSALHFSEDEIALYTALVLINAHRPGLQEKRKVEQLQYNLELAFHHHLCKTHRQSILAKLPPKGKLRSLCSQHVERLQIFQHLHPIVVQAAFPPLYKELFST
Nature of the assay: RORγ-Ligand Binding Domain (LBD) TR-FRET Assay. Format: biochemical. Conditions: RORγ-LBD TR-FRET. A digest of the protocol:
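This TR-FRET coactivator assay pairs baculovirus-expressed His-RORγ-LBD (~3 nM final) with biotin-SRC1 LXXLL peptide at 200 nM final in pH 7.0 Tris/KCl/EDTA/DTT/BSA buffer.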

In the next assay the target is T2, Gal4-RORγ-LBD (Homo sapiens, UniProt P51449).
T2 construct: expressed in transfected cells
T2 sequence (P51449 269-508 limits assumed): T1 sequence (P51449 269-508 limits assumed)
The experiment in a line: Gal4-RORγ Luciferase Reporter Assay in HEK-293T Cells. Format: cell-based. Conditions: HEK-293 cells, luciferase reporter, with ursolic acid. The method, boiled down:
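HEK-293 cells were co-transfected with Gal4-RORγ-LBD and a Gal4-luciferase reporter, then exposed overnight at 37 °C to compounds with […] ursolic acid present (0.2% DMSO). Luminescence was read with One-Glo after 10 min at RT, untreated signal was set as 100, and Max Response was taken as the upper plateau of a 4-parameter logistic fit.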

Regarding `COC(=O)CC[C@H]1CN(S(=O)(=O)c2cccc(C(F)(F)F)c2)c2c(ccc(/C=C(\C)c3c(F)cccc3Cl)c2C)O1` [Example 57, Methyl (S,E)-3-(6-(2-(2-chloro-6-fluorophenyl)prop-1-en-1-yl)-5-methyl-4-((3-(trifluoromethyl)phenyl)sulfonyl)-3,4-dihydro-2H-benzo[b][1,4]oxazin-2-yl)propanoate], the EC50 at RORγ-LBD is under 500 nM; at Gal4-RORγ-LBD, over 10 µM.
`C/C(=C\c1ccc2c(c1C)N(S(=O)(=O)c1cccc(C(F)(F)F)c1)C[C@H](CCC(=O)O)O2)c1c(F)cccc1Cl` [Example 58, (S,E)-3-(6-(2-(2-Chloro-6-fluorophenyl)prop-1-en-1-yl)-5-methyl-4-((3-(trifluoromethyl)phenyl)sulfonyl)-3,4-dihydro-2H-benzo[b][1,4]oxazin-2-yl)propanoic acid]: the values for the EC50 at RORγ-LBD and at Gal4-RORγ-LBD were under 500 nM and 0.5 to 5 µM, respectively.
Taken in the same sequence, the figures for `COC(=O)CC[C@H]1CN(S(=O)(=O)c2cccc(OC(F)F)c2)c2c(ccc(/C=C(\C)c3c(F)cccc3Cl)c2C)O1` [Example 59, Methyl (S,E)-3-(6-(2-(2-chloro-6-fluorophenyl)prop-1-en-1-yl)-4-((3-(difluoromethoxy)phenyl)sulfonyl)-5-methyl-3,4-dihydro-2H-benzo[b][1,4]oxazin-2-yl)propanoate] were under 500 nM and 0.5 to 5 µM.
For `C/C(=C\c1ccc2c(c1C)N(S(=O)(=O)c1cccc(OC(F)F)c1)C[C@H](CCC(=O)O)O2)c1c(F)cccc1Cl` [Example 60, (S,E)-3-(6-(2-(2-Chloro-6-fluorophenyl)prop-1-en-1-yl)-4-((3-(difluoromethoxy)phenyl)sulfonyl)-5-methyl-3,4-dihydro-2H-benzo[b][1,4]oxazin-2-yl)propanoic acid] the same measures were under 500 nM and 0.5 to 5 µM.
As to `COC(=O)CC[C@H]1CN(S(=O)(=O)c2cccc(C(F)(F)F)c2)c2c(ccc(/C=C(\C)c3c(F)cccc3Cl)c2F)O1` [Example 61, Methyl (S,E)-3-(6-(2-(2-chloro-6-fluorophenyl)prop-1-en-1-yl)-5-fluoro-4-((3-(trifluoromethyl)phenyl)sulfonyl)-3,4-dihydro-2H-benzo[b][1,4]oxazin-2-yl)propanoate], the EC50 at RORγ-LBD is under 500 nM; at Gal4-RORγ-LBD it was 0.5 to 5 µM.
Turning to `C/C(=C\c1ccc2c(c1F)N(S(=O)(=O)c1cccc(C(F)(F)F)c1)C[C@H](CCC(=O)O)O2)c1c(F)cccc1Cl` [Example 62, (S,E)-3-(6-(2-(2-Chloro-6-fluorophenyl)prop-1-en-1-yl)-5-fluoro-4-((3-(trifluoromethyl)phenyl)sulfonyl)-3,4-dihydro-2H-benzo[b][1,4]oxazin-2-yl)propanoic acid], the EC50 was under 500 nM on RORγ-LBD and 0.5 to 5 µM at Gal4-RORγ-LBD.
Regarding `COC(=O)CC[C@H]1CN(S(=O)(=O)c2cccc(OC(F)F)c2)c2c(ccc(/C=C(\C)c3c(F)cccc3Cl)c2F)O1` [Example 63, Methyl (S,E)-3-(6-(2-(2-chloro-6-fluorophenyl)prop-1-en-1-yl)-4-((3-(difluoromethoxy)phenyl)sulfonyl)-5-fluoro-3,4-dihydro-2H-benzo[b][1,4]oxazin-2-yl)propanoate], the EC50 at RORγ-LBD was under 500 nM; on Gal4-RORγ-LBD it was 0.5 to 5 µM.
Taken in the same sequence, the figures for `C/C(=C\c1ccc2c(c1F)N(S(=O)(=O)c1cccc(OC(F)F)c1)C[C@H](CCC(=O)O)O2)c1c(F)cccc1Cl` [Example 64, (S,E)-3-(6-(2-(2-Chloro-6-fluorophenyl)prop-1-en-1-yl)-4-((3-(difluoromethoxy)phenyl)sulfonyl)-5-fluoro-3,4-dihydro-2H-benzo[b][1,4]oxazin-2-yl)propanoic acid] were under 500 nM and 0.5 to 5 µM.
For the compound `CCOc1ncc(Cl)cc1S(=O)(=O)N1C[C@H](CCC(=O)OC)Oc2ccc(/C=C(\C)c3c(F)cccc3Cl)cc21` [Example 67, Methyl (S,E)-3-(4-((5-chloro-2-ethoxypyridin-3-yl)sulfonyl)-6-(2-(2-chloro-6-fluorophenyl)prop-1-en-1-yl)-3,4-dihydro-2H-benzo[b][1,4]oxazin-2-yl)propanoate], the EC50 on RORγ-LBD was under 500 nM; at Gal4-RORγ-LBD it was 0.5 to 5 µM.
